Test results reported in ChEMBL document CHEMBL1123313, “Folate analogues. 25. Synthesis and biological evaluation of N10-propargylfolic acid and its reduced derivatives” (J Med Chem, 1986).
pIC50: −log10 of the molar value. Values after ≈ are worked out from the molar mass of the structure shown.

Experiments:
[1] = tested on: Lacticaseibacillus casei; assay: Inhibitory activity against Lactobacillus casei ATCC 7469; type: functional, organism-based
[2] = tested on: Lacticaseibacillus casei; assay: Inhibitory activity against Lactobacillus casei MTX-resistant; type: functional, organism-based
[3] = biological target: T1, Thymidylate synthase (Lactobacillus casei, UniProt P00469); assay: Inhibitory activity against thymidylate synthase derived from Lactobacillus casei; parameters: species or system Lacticaseibacillus casei
T1 sequence (P00469 whole entry): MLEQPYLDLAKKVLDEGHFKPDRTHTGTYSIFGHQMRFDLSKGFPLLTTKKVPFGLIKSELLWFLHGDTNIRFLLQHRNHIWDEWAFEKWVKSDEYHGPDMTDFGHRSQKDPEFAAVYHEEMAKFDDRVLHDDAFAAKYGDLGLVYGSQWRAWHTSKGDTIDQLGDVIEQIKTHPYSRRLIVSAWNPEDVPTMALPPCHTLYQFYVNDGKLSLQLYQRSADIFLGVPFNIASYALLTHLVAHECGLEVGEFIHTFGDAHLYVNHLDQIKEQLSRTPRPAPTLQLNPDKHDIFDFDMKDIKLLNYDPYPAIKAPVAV

[4] = tested on: Enterococcus faecium; assay: Inhibitory activity against Streptococcus faecium ATCC 8043; type: functional, organism-based
[5] = tested on: Enterococcus faecium; assay: Inhibitory activity against Streptococcus faecium MTX-resistant; type: functional, organism-based
[6] = biological target: Dihydrofolate reductase (Lactobacillus casei, UniProt P00381)
Sequence of Dihydrofolate reductase (P00381 whole entry): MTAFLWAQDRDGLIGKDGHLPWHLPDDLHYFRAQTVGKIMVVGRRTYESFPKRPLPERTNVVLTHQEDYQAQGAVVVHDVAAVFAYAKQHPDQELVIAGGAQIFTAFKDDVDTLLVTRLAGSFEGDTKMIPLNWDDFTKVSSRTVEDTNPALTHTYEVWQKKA
Description: Inhibitory activity against dihydrofolate reductase derived from Lactobacillus casei

[7] = biological target: T2, Thymidylate synthase (Mus musculus, UniProt P07607); assay: Inhibitory activity against thymidylate synthase in the intact L1210 cells; type: cell-based
T2 sequence (P07607 whole entry): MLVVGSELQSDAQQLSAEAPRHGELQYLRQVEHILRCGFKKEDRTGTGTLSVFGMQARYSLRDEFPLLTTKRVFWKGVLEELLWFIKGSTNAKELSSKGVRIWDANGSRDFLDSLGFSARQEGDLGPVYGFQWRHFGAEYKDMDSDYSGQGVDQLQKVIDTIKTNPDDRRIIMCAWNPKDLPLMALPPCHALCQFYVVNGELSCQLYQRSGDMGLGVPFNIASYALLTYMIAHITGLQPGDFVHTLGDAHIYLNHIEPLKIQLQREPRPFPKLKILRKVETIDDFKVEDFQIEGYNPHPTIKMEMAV

[8] = biological target: T2, Thymidylate synthase; assay: Inhibitory activity against the thymidylate synthase in the Permeabilized L1210 cells; type: cell-based
[9] = Lacticaseibacillus casei, read-out: IC50

Which IC50 [1] does the source give for `C#CCN(CC1=Nc2c(O)nc(N)nc2NC1)c1ccc(C(=O)NC(CCC(=O)O)C(=O)O)cc1` (stereo not drawn) here?
Its IC50 is 36 ng/mL (≈ 0.0748 µM).

And the IC50 [2, 9]?
Its IC50 is over 2000 ng/mL.

What about the pIC50 [3] of the same molecule?
Its pIC50 is 4.30.

What about the IC50 [4] of the same molecule?
The IC50 was 0.13 ng/mL (≈ 0.00027 µM).

What about the IC50 [5] of the same molecule?
The IC50 was 24 ng/mL (≈ 0.0498 µM).

And the pIC50 [6]?
Its pIC50 is under 4.30.

Which results are given for `C#CCN(CC1CNc2nc(N)nc(O)c2N1)c1ccc(C(=O)NC(CCC(=O)O)C(=O)O)cc1` (stereo not drawn)?
IC50 [1]: > 2000 ng/mL; IC50 [2, 9]: > 2000 ng/mL; pIC50 [3]: 4.49; IC50 [4]: 0.08 ng/mL (≈ 0.000165 µM); IC50 [5]: > 2000 ng/mL; pIC50 [6]: < 3.85

With `CN(Cc1cnc2nc(N)nc(O)c2n1)c1ccc(C(=O)NC(CCC(=O)O)C(=O)O)cc1` (stereo not drawn) as the molecule, how does the pIC50 [7] read?
Its pIC50 is under 3.00.

And the pIC50 [8]?
Its pIC50 is 3.18.

Which results are given for `C#CCN(Cc1cnc2nc(N)nc(O)c2n1)c1ccc(C(=O)O)cc1`?
IC50 [1]: > 2000 ng/mL; IC50 [2, 9]: > 2000 ng/mL; pIC50 [3]: < 3.54; IC50 [4]: 0.76 ng/mL (≈ 0.00217 µM); IC50 [5]: > 2000 ng/mL; pIC50 [6]: < 4.00

For `C#CCN(Cc1cnc2nc(N)nc(O)c2n1)c1ccc(C(=O)NC(CCC(=O)O)C(=O)O)cc1` (stereo not drawn), which IC50 [1] is on record?
Its IC50 is over 2000 ng/mL.

And the IC50 [2, 9]?
Its IC50 is over 2000 ng/mL.

And the pIC50 [3]?
The pIC50 was 5.41.

And the IC50 [4]?
Its IC50 is 0.56 ng/mL (≈ 0.00117 µM).

And the IC50 [5]?
The IC50 was over 2000 ng/mL.

And the pIC50 [7]?
Its pIC50 is under 2.52.

What about the pIC50 [8] of the same molecule?
The pIC50 was 5.12.

What about the pIC50 [6] of the same molecule?
The pIC50 was under 4.00.

Which IC50 [2, 9] does the source give for `C#CCN(Cc1ccc2[nH]c(N)nc(=O)c2c1)c1ccc(C(=O)NC(CCC(=O)O)C(=O)O)cc1` (stereo not drawn) here?
Its IC50 is 2000 ng/mL (≈ 4.19 µM).

`Nc1nc2ncc(CNc3ccc(C(=O)N[C@@H](CCC(=O)O)C(=O)O)cc3)nc2c(=O)[nH]1` [FOLIC ACID] was tested. Which pIC50 [7] did it give?
The pIC50 was under 3.00.

What about the pIC50 [8] of the same molecule?
Its pIC50 is 2.74.

Which IC50 [1] does the source give for `CN(Cc1cnc2nc(N)nc(N)c2n1)c1ccc(C(=O)N[C@@H](CCC(=O)O)C(=O)O)cc1` [METHOTREXATE] here?
Its IC50 is 0.02 ng/mL (≈ 4.4e-05 µM).

What about the IC50 [2] of the same molecule?
Its IC50 is over 500000 ng/mL.
